The text below walks through data of paper PMC4234447 (Journal of Medicinal Chemistry, 2014).

The subject of one assay is 797 cell line. In words: Cell viability assay. Type of assay: cell-based. Particulars: read-out: 797 cellular EC50 (cellular potency).
For a further assay, the target named is BRD4 (Homo sapiens, UniProt O60885). Kind of assay: AlphaScreen BRD binding assay. Particulars: calculated from BRD4 potency.

pEC50: −log10 of the molar value.

For `Cc1sc2c(c1C)C(c1ccc(Cl)cc1)=N[C@@H](CC(=O)OC(C)(C)C)c1nnc(C)n1-2` [Compound 1], in the assay on 797 cell line, the pEC50 is 7.14.

As for `Cc1noc(C)c1-c1ccc(C=O)cc1` [Compound 8], on BRD4, the “ligand efficiency (as defined by Hopkins et al.)” value is given as 0.54.

The pEC50 is −log10 of the EC50, conventionally taken in molar units.
